Series [1] relates to BxPC3 pancreatic carcinoma cells. In words: MTT cytotoxicity test, BxPC3. In kind it is cell-based, human. The following applies: for IC50: BxPC3, 72 h, MTT, ± S.D.; for times more effective than cisplatin: BxPC3 cells. Here is the method: The cytotoxic activity of the complexes and of the uncoordinated ligands was evaluated by the MTT test on a panel of human tumor cell lines containing examples of pancreatic (BxPC3), colorectal (HCT-15), breast (MCF-7), cervical (A431), and lung (A549) cancers as well as of melanoma (A375). For comparison purposes, the cytotoxicity of cisplatin was evaluated under the same experimental conditions.
(§1) Cisplatin was dissolved in 0.9% NaCl solution.
Human breast (MCF-7), colon (HCT-15), lung (A549) and pancreatic (BxPC3) carcinoma cell lines together with melanoma (A375) cells were obtained from American Type Culture Collection (ATCC, Rockville, MD). The human ovarian cancer cell line 2008 and its cisplatin resistant variant, C13*, were kindly provided by Prof. G. Marverti (Department of Biomedical Science of Modena University, Italy). Human cervical carcinoma (A431) cells were kindly provided by Prof. F. Zunino (Division of Experimental Oncology B, Istituto Nazionale dei Tumori, Milan, Italy). Cell lines were maintained in the logarithmic phase at 37 °C in a 5% carbon dioxide atmosphere using the following culture media containing 10% fetal calf serum (Euroclone, Milan, Italy), antibiotics (50 units/mL penicillin and 50 μg/mL streptomycin) and 2 mM L-glutamine: (i) RPMI-1640 medium (Euroclone) for 2008, C13*, MCF-7, HCT-15, A431 and BxPC3 cells, (ii) F-12 HAM’S (Sigma Chemical Co.) for A549 cells, iii) DMEM (Sigma Chemical Co.) for A375 cells.
The growth inhibitory effect toward tumor cells was evaluated by means of the MTT assay. Briefly, (3–8) × 10^3 cells/well, dependent upon the growth characteristics of the cell line, were seeded in 96-well microplates in growth medium (100 μL). After 24 h, the medium was removed and replaced with fresh medium containing the compound to be studied at the appropriate concentration. Triplicate cultures were established for each treatment. After 24, 48, or 72 h, each well was treated with 10 μL of a 5 mg/mL MTT saline solution and, after 5 h of incubation, 100 μL of a sodium dodecylsulfate (SDS) solution in 0.01 M HCl was added. After an overnight incubation, cell growth inhibition was detected by measuring the absorbance of each well at 570 nm using a Bio-Rad 680 microplate reader. The mean absorbance for each drug dose was expressed as a percentage of the control, untreated well absorbance and plotted vs drug concentration. The IC50 values, the drug concentrations that decrease the mean absorbance at 570 nm to 50% of that of untreated control wells, were calculated from the dose–response curves with the four-parameter logistic model (4PL). The final value is the mean ± S.D. of at least three independent experiments performed in triplicate.
A general note: Formazan colour is commonly taken as a measure of viable cells.

In series [2] the test system is 2008 ovarian cancer cells. Put plainly: MTT cytotoxicity test, cisplatin-sensitive 2008. Format: cell-based, human. The settings on record: 2008 cisplatin-sensitive, 72 h, ± S.D. Here is the method: The cytotoxic properties of the complexes were also evaluated in a pair of tumor cell lines suitably selected for their sensitivity and resistance to cisplatin (adenocarcinoma cells 2008/C13^*). Cross-resistance profiles were evaluated by means of the resistance factor (RF), defined as the ratio between IC50 values calculated for the resistant cells and those obtained with the sensitive ones (Table 2). The phenomenon of cisplatin resistance is multifactorial in nature. Nevertheless, the main molecular mechanisms involved in drug resistance in C13* cancer cells have largely been identified. Indeed, in this cell line resistance is correlated to high cellular glutathione and thioredoxin reductase levels, reduced cellular drug uptake and enhanced repair of DNA damage. […] The RF values calculated for all derivatives were six- to nine-fold lower than that of cisplatin, clearly indicating the absence of cross-resistance.
as §1
Triplicate cultures were established for each treatment.

Series [3] can be described thus: Stability in physiological saline by mass spectrometry. Format: physicochemical. The settings on record: 0.9% NaCl. As for the experimental part:
Ten indole carboxylic acid Pt(IV) complexes with IAA (indole-3-acetic acid, 1A–5A) and IPA (indole-3-propionic acid, 1P–5P) were synthesized and the structures are depicted in Fig. 3. The monocarboxylato complexes 1A and 1P were prepared by reacting oxoplatin, c,c,t-[Pt(NH3)2Cl2(OH)2], with 0.8 eq. of the activated NHS-ester of the corresponding indole carboxylic acid. The dicarboxylato complexes with two indole acids in axial position (2A and 2P) were obtained using an excess of the NHS-ester activated acid (20 eq.), since the second hydroxo group of oxoplatin is much less reactive than the first one. The unsymmetrically substituted complexes (3A–5A and 3P–5P) were prepared by reaction of the monocarboxylate complexes 1A and 1P with the corresponding anhydrides. We chose three different anhydrides (benzoic, acetic and succinic anhydride) to vary the lipophilicity of the resulting Pt(IV) complexes. All the synthesized Pt(IV) complexes were characterized using elemental analysis, ESI-MS, FT-IR, ^1H and ^195Pt NMR spectroscopy. The purity of the complexes has been assessed through elemental analysis and–where solubility was not an issue–by high performance liquid chromatography (HPLC). The dicarboxylato complexes are poorly soluble in organic solvents. The proton NMR spectra of the complexes in DMSO-d6 show the typical signal of the NH3 protons which is a multiplet at around 6 ppm for the monocarboxylato complexes 1P and 1A (typical ^1JNH and ^2JPtH values around 50 Hz) while it is a broad signal around 6.5 ppm for the bis-substituted complexes (2–5A and 2–5P, Supplementary Information)[44]. The mass spectra of the complexes show a peak in the negative mode with the typical platinum isotope pattern corresponding to M − H^− or M + Cl^−. Stability studies on representative examples of the complexes (1A, 1P, 3A and 3P) via mass spectrometry confirm that the complexes are stable in physiological saline (0.9% NaCl) for at least 48 h (Supplementary Information).
Complexes 1A, 1P, 3A and 3P where dissolved in a minimum amount of DMF and diluted 1:20 with physiological saline (0.9% NaCl). Mass spectra were recorded at t = 0 and after 48 hours.

For the compound `CC(=O)[O][Pt]([NH2])([NH2])([Cl])([Cl])[O]C(=O)Cc1c[nH]c2ccccc12` [Complex 5A], the IC50 in series [1] was determined as 44.4 ± 6.19 µM; in series [2] it was 41.2 ± 0.75 µM.

With `[NH2][Pt]([NH2])([OH])([Cl])([Cl])[O]C(=O)CCc1c[nH]c2ccccc12` [Complex 1P, cis,cis,trans-[Pt(NH3)2Cl2(IPA)(OH)]], the IC50 in series [1] was determined as 2.26 ± 0.99 µM; in series [2] it was 1.45 ± 0.37 µM. Moreover, in series [1], the “times more effective than cisplatin” value is listed as “four times”. The “stable in physiological saline” value in series [3] is on record as “at least 48 h”.

For `[NH2][Pt]([NH2])([Cl])([Cl])([O]C(=O)Cc1c[nH]c2ccccc12)[O]C(=O)c1ccccc1` [Complex 3A], the IC50 stood at 2.56 ± 1.07 µM in series [1] and 9.97 ± 3.18 µM in series [2]. Moreover, the “stable in physiological saline” value in series [3] is given as “at least 48 h”.

As to `[NH2][Pt]([NH2])([OH])([Cl])([Cl])[O]C(=O)Cc1c[nH]c2ccccc12` [Complex 1A], in series [1], the 50% inhibitory concentration (IC50) is 2.64 ± 0.97 µM and the “times more effective than cisplatin” value is reported as “four times”. Also, inhibition in series [2] was half-maximal at 2.89 ± 1.22 µM (IC50). Further, the “stable in physiological saline” value in series [3] is “at least 48 h”.

Regarding `[NH2][Pt]([NH2])([Cl])([Cl])([O]C(=O)CCC(=O)O)[O]C(=O)Cc1c[nH]c2ccccc12` [Complex 4A], the concentration for half-maximal inhibition (IC50) in series [1] and in series [2] was greater than 50 µM each time.

The IC50 is the point on the concentration scale where inhibition reaches its midpoint. Higher therefore signals lower potency.

The values above are taken from PMC4941645, “Oxidative Stress Induced by Pt(IV) Pro-drugs Based on the Cisplatin Scaffold and Indole Carboxylic Acids in Axial Position” (Scientific Reports, 2016).
